# Test results published in patent publication US20080096929A1, “Novel Use” (ASTRAZENECA AB, priority 2004, published 2008).
# Target: T1, human MPO (Homo sapiens, UniProt P05164)
# T1 sequence (P05164 49-745): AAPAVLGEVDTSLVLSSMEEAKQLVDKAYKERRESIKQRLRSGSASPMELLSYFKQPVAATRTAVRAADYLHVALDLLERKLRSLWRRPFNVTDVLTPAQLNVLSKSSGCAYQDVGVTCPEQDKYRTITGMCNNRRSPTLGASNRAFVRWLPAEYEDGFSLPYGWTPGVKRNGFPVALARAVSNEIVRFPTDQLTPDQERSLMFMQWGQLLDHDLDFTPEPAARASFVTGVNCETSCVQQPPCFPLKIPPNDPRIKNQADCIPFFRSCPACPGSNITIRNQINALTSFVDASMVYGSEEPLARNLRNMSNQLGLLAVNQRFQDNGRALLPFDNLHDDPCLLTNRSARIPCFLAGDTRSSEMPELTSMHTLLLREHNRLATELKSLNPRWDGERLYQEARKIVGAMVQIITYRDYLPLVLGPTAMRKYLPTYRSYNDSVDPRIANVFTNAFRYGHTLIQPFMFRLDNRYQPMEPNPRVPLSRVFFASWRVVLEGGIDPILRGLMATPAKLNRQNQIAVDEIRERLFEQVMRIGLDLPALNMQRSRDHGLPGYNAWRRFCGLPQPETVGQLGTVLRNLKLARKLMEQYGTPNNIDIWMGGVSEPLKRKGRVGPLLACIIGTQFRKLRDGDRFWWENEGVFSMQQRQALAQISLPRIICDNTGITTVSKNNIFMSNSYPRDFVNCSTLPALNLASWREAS
# Assay: MPO inhibition screen (TMB oxidation, absorbance)
# Assay type: biochemical
# Settings: in the presence of tyrosine (final 8 μM); human MPO 2.5 nM; H2O2 100 μM
# Description: Methods for the determination of MPO inhibitory activity are disclosed in patent application WO 02/090575. The pharmacological activity of compounds according to the invention was tested in the following screen in which the compounds were either tested alone or in the presence of added tyrosine:
# Assay buffer: 20 mM sodium/potassium phosphate buffer pH 6.5 containing 10 mM taurine and 100 mM NaCl.
# Developing reagent: 2 mM 3,3′,5,5′-tetramethylbenzidine (TMB), 200 μM KI, 200 mM acetate buffer pH 5.4 with 20% DMF.
# To 10 μl of diluted compounds in assay buffer, 40 μl of human MPO (final concentration 2.5 nM), with or without 20 μM tyrosine (final concentration, if present, 8 μM), was added and the mixture was incubated for 10 minutes at ambient temperature. Then 50 μl of H2O2 (final concentration 100 μM), or assay buffer alone as a control, were added. After incubation for 10 minutes at ambient temperature, the reaction was stopped by adding 10 μl 0.2 mg/ml of catalase (final concentration 18 μg/ml). The reaction mixture was left for an additional 5 minutes before 100 μl of TMB developing reagent was added. The amount of oxidised 3,3′,5,5′-tetramethylbenzidine formed was then measured after about 5 minutes using absorbance spectroscopy at about […]. IC50 values were then determined using standard procedures.
row,SMILES,IC50 [µM]
1,"O[C@@H]1CCCC[C@H]1n1c(COc2ccccc2Cl)n[nH]c1=S (relative stereo) [Example 2, 5-(2-Chloro-phenoxymethyl)-4-(trans-2-hydroxycyclohexyl)-2,4-dihydro-[1,2,4]triazole-3-thione]",3.59
2,"S=c1[nH]nc(Cc2ccccn2)n1C1CC2C=CC1C2 (stereo not drawn) [Example 4, 4-(Bicyclo[2.2.1]hept-5-en-2-yl)-5-pyridin-2-ylmethyl-2,4-dihydro-[1,2,4]triazole-3-thione]",6.73
3,"S=c1[nH]nc(Cc2ccccn2)n1C1CCN(Cc2ccccc2)C1 (stereo not drawn) [Example 5, 4-(1-Benzyl-pyrrolidin-3-yl)-5-pyridin-2-ylmethyl-2,4-dihydro-[1,2,4]triazole-3-thione]",7.2
